Laboratory results as given in patent publication US20250025439A1, “DERIVATIVES OF NIFUROXAZIDE FOR USE IN THE TREATMENT OF MITOCHONDRIAL DISORDERS AND NEURODEGENERATIVE DISEASES” (priority 2021, published 2025).

What was measured:
Test in all cases: Affinity chromatography with NFX-beads and mass spectrometry
Format in all cases: binding
Settings in all cases: spectral counts, NFX coupled beads vs beads alone, human fibroblast extracts
[1] = target: T1, ARF GTPase-activating protein GIT2 (Homo sapiens, UniProt Q14161)
T1 construct: Protein extracts from human fibroblasts were incubated with magnetic beads; endogenous in cells; host or cells: human fibroblast lysate
T1 sequence (Q14161 1-759): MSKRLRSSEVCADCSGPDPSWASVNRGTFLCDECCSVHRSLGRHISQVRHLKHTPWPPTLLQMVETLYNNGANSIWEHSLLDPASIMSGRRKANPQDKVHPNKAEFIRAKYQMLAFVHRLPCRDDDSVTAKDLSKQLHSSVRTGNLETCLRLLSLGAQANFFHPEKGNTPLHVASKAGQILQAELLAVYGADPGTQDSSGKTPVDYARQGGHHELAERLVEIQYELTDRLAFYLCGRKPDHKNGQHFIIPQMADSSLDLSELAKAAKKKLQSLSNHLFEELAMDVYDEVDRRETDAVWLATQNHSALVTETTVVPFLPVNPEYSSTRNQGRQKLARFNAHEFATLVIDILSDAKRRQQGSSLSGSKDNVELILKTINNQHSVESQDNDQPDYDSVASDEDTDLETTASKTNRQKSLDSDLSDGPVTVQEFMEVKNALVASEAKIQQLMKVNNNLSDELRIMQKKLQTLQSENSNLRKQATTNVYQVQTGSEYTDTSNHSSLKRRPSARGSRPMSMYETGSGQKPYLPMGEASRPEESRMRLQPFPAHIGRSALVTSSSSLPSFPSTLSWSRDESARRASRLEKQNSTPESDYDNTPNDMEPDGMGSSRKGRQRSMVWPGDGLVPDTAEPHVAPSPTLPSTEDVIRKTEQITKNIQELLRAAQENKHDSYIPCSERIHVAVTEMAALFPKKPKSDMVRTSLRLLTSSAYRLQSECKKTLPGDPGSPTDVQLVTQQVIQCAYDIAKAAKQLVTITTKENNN
Description: (§1) Fibroblasts were trypsinized and washed with PBS 1× then incubated in lysis buffer on ice during 20 minutes (Lysis buffer: Tris-HCl pH 7.5 50 mM, EDTA 2 mM, Triton X-100 0.1% supplemented with anti-protease and anti-phosphatase (Complete-Mini™—Roche). After centrifugation 15 minutes, 13 000 rpm at 4° C., supernatant was conserved and the protein concentration was determined using the Pierce BCA assay kit (Thermo Fisher Scientific).
(§2) 10 μL of magnetic beads and NFX-beads were washed three times in Bead buffer before to be resuspended 100 μL of Bead buffer (Bead buffer: Tris-HCl pH 7.5 50 mM, NaCl 150 mM, Triton X-100 0.1%, supplemented with anti-protease and anti-phosphatase (Complete-Mini™—Roche)) thanks to a magnetic rack (DynaMag-2 Ref 12321D Life Technologies). 800 μg of proteins were mixed with 100 μL of diluted beads and the final volume was set to 800 μL with Bead buffer. The proteins and the beads were incubated 30 minutes with rotation in a cold room. Using a magnetic rack, the beads were separated from the protein extract and washed three time with Bead buffer before to be resuspended in 75 μL of Laemmli2X. Laemmli with beads was put 5 minutes at 95° C. to eluate the proteins and the beads were discarded using a magnetic rack. 35 μL of the eluted proteins were subjected to SDS-PAGE and silver coloration (ProteoSilver™ Silver Stain Kit—Sigma Aldrich). Bands of interest were extracted from the gel and subjected to mass spectrometry.
(§3) Mass spectrometric identification and quantification of the pulled down proteins were performed as previously described (Shrivastava et al., EMBO, 2019, 38:e99871). The raw data were cleaned using the following pathway. First, only the proteins found to interact with the NFX coupled beads in the three replicates were kept for further analysis. […] The final proteins were then classified based on the fold chance and the p-value.
(§4) Identification of the NFX intracellular targets is a crucial step in understanding its mechanisms of action and to be able to improve its efficiency on a rational basis. To purify NFX-binding proteins, affinity chromatography purification was performed using magnetic beads. Protein extracts from human fibroblasts were incubated with magnetic beads alone or to which NFX has been covalently coupled (Scheme 1). Eluted fractions were subjected to SDS-PAGE electrophoresis and silver staining (FIG. 9A). The pattern was clearly different between eluted proteins from NFX-beads compared to those eluted form beads alone with 13 bands either appeared or were of a higher intensity with the NFX-beads (FIG. 9B). Excised bands were subjected to proteolytic digestion and mass spectrometry.

[2] = target: T2, Kinesin-1 heavy chain (KIF5B) (Homo sapiens, UniProt P33176)
T2 construct: Protein extracts from human fibroblasts were incubated with magnetic beads; endogenous in cells; host or cells: human fibroblast lysate
T2 sequence (P33176 1-963): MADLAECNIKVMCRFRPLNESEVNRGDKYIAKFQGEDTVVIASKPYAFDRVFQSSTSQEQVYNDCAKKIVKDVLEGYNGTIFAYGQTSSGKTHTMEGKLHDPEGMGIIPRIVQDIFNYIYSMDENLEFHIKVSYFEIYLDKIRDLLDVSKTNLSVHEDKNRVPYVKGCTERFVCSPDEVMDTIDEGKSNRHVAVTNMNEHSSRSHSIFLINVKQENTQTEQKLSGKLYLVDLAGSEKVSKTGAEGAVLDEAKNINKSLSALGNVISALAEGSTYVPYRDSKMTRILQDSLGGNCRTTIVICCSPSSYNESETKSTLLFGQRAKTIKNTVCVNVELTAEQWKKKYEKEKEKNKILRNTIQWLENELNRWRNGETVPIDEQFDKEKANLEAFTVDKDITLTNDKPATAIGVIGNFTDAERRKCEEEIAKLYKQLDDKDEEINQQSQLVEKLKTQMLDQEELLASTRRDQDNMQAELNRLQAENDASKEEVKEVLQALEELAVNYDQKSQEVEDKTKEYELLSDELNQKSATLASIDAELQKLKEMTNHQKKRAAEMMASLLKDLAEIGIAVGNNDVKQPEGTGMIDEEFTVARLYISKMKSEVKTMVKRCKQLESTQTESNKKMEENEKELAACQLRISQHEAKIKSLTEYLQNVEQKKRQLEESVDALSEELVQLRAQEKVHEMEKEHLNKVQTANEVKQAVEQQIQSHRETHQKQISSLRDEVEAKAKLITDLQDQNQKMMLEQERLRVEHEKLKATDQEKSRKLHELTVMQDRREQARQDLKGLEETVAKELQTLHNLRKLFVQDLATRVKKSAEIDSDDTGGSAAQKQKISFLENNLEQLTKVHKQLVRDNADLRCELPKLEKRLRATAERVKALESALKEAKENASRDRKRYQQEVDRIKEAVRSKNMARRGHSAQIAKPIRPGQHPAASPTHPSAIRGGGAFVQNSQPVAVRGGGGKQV
Description: as §1, §2, §3, §4

[3] = target: T3, Mitogen-activated protein kinase (MAP4K4) (Homo sapiens, UniProt O95819)
T3 construct: Protein extracts from human fibroblasts were incubated with magnetic beads; endogenous in cells; host or cells: human fibroblast lysate
Description: as §1, §2, §3, §4

[4] = target: T4, Myotubularin-related protein 5 (SBF1) (Homo sapiens, UniProt O95248)
T4 construct: Protein extracts from human fibroblasts were incubated with magnetic beads; endogenous in cells; host or cells: human fibroblast lysate
Description: as §1, §2, §3, §4

T3 sequence (O95819 whole entry): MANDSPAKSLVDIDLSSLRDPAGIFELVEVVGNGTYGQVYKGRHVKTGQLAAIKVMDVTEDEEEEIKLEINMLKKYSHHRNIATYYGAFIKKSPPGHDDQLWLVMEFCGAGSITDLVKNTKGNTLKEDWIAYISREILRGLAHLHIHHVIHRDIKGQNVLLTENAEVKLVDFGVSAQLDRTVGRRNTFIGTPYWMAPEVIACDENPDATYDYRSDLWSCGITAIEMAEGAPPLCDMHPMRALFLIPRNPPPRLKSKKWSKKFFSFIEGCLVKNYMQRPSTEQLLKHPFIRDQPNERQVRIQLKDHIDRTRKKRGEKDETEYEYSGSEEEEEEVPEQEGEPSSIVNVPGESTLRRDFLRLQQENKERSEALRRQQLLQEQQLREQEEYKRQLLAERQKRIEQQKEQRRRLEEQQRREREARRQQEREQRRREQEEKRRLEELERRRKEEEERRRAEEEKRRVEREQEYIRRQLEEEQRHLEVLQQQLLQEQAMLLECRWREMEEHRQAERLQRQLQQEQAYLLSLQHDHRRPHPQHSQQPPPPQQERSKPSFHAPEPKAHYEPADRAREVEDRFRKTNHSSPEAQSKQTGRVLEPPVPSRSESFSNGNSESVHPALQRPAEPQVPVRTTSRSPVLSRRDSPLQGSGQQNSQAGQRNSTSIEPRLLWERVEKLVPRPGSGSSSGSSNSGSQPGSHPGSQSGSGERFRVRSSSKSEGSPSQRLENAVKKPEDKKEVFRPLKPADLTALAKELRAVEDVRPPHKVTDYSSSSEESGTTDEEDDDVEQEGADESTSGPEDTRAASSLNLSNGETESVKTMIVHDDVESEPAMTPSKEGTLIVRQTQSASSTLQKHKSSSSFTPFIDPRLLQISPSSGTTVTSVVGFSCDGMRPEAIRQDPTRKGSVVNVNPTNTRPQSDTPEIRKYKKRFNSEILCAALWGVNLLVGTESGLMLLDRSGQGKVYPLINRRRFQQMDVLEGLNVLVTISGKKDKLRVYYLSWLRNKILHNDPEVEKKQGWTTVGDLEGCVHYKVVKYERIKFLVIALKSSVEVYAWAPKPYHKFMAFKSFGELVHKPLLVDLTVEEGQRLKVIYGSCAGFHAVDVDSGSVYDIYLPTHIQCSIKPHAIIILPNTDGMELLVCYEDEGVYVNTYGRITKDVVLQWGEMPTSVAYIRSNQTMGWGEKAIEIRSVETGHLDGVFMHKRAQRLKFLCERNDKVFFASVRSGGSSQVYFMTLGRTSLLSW
T4 sequence (O95248 whole entry): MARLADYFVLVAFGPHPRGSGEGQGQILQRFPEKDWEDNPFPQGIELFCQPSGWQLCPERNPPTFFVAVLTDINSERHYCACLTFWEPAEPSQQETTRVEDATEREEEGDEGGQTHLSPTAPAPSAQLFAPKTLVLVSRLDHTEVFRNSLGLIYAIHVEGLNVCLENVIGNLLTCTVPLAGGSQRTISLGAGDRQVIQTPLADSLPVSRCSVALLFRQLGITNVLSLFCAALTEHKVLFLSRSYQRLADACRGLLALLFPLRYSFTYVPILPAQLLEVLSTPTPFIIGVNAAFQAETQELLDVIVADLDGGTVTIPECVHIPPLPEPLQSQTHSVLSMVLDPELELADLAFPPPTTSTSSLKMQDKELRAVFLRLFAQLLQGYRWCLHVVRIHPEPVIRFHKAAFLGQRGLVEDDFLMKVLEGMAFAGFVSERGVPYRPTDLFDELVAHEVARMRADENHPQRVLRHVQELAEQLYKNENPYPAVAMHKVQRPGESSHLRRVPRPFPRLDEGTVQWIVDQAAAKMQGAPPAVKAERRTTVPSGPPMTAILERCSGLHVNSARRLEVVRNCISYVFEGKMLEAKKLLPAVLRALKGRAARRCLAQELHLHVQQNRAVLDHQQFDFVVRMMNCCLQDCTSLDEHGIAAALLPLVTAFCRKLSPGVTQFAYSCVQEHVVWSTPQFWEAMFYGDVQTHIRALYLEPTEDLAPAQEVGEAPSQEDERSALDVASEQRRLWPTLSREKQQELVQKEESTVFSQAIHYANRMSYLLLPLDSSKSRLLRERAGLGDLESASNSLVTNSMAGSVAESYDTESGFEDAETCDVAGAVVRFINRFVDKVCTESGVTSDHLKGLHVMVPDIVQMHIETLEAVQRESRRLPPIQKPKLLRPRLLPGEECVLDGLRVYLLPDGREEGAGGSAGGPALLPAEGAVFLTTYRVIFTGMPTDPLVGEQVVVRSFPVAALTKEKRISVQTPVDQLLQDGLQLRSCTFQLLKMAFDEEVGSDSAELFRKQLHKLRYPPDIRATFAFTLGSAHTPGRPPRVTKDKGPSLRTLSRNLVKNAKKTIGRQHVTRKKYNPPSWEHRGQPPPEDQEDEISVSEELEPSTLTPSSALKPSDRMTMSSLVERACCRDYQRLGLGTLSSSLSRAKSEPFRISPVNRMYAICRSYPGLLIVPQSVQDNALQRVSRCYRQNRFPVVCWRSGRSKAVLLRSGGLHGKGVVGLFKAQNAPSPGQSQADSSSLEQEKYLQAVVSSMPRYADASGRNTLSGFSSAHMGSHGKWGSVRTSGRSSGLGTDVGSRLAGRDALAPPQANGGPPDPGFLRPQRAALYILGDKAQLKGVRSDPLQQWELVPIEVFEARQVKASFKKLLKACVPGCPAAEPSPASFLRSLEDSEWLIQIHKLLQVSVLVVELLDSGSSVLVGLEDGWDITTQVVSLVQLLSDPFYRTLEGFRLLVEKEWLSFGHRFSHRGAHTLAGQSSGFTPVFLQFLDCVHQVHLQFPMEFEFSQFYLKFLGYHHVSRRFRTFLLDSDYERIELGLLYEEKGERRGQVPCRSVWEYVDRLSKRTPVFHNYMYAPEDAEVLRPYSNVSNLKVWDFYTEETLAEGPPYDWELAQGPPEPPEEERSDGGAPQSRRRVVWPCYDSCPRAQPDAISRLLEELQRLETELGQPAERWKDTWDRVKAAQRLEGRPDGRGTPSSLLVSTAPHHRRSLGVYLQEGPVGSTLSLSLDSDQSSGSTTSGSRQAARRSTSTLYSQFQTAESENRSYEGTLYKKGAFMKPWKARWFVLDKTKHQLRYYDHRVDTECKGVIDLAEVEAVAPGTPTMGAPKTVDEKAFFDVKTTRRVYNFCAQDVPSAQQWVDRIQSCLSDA

With `O=C(N/N=C/c1ccc([N+](=O)[O-])o1)c1ccc(O)cc1` [NFX, (E)-4-hydroxy-N′-((5-nitrofuran-2-yl)methylene)benzohydrazide] the Fold change [1] was 433.33, the Fold change [2] was 121.67 and the Fold change [3] was 29.76. The Fold change [4] was 41.35.
